Test system: 299254-011-R-J1-PDC complex spheroid viability
Assay: Anticancer human tumor 299254-011-R-J1-PDC patient-derived melanoma cell line growth inhibition [POLQ]
Conditions: for IC50: curve of first compound; for viability, T/C: stronger effect = lower value; active means viability on the fitted dose curve at most 10% of control; inactive means the rest
Summary of the method: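 PDC + HUVEC + MSC complex spheroids; POLQ inhibitors ± partner drugs; top conc. at/near clinical Cmax, else 10 microM (SN-38 1 microM), half-log dilutions; 37 degrees C, 5% CO2.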

[1] = second compound 0.0316 µM, first compound 0.0316 µM
[2] = second compound 0.0316 µM, first compound 0.1 µM
[3] = second compound 0.1 µM, first compound 0.0316 µM
[4] = second compound 0.1 µM, first compound 0.1 µM
[5] = second compound 0.316 µM, first compound 0.0316 µM
[6] = second compound 0.316 µM, first compound 0.1 µM
[7] = second compound 1 µM, first compound 0.0316 µM
[8] = second compound 1 µM, first compound 0.1 µM
[9] = second compound 3.16 µM, first compound 0.0316 µM
[10] = second compound 3.16 µM, first compound 0.1 µM
[11] = second compound 10 µM, first compound 0.0316 µM
[12] = second compound 10 µM, first compound 0.1 µM
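Further: spheroids exposed to drugs for one week before measurement.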
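Wherever viability, T/C is given: percent viability relative to DMSO vehicle control taken as 100%.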

CC[C@@]1(O)C(=O)OCc2c1cc1n(c2=O)Cc2cc3c(CN(C)C)c(O)ccc3nc2-1 + Nc1ccc(C#CCN(C(=O)Cc2ncc(C(F)(F)F)cc2C(F)(F)F)c2ccc(F)cc2)nn1
> 0.1 µM: IC50 (second compound 0.0316 µM) | IC50 (second compound 0.1 µM) | IC50 (second compound 0.316 µM) | IC50 (second compound 1 µM) | IC50 (second compound 3.16 µM) | IC50 (second compound 10 µM)
inactive: viability, T/C (second compound 0.0316 µM, first compound 0.000316 µM) 133% | viability, T/C (second compound 0.0316 µM, first compound 0.001 µM) 112% | viability, T/C (second compound 0.0316 µM, first compound 0.00316 µM) 108% | viability, T/C (second compound 0.0316 µM, first compound 0.01 µM) 101% | viability, T/C [1] 88.5% | viability, T/C [2] 77.8% | viability, T/C (second compound 0.1 µM, first compound 0.000316 µM) 111% | viability, T/C (second compound 0.1 µM, first compound 0.001 µM) 107% | viability, T/C (second compound 0.1 µM, first compound 0.00316 µM) 105% | viability, T/C (second compound 0.1 µM, first compound 0.01 µM) 94.7% | viability, T/C [3] 94.8% | viability, T/C [4] 84.6% | viability, T/C (second compound 0.316 µM, first compound 0.000316 µM) 106% | viability, T/C (second compound 0.316 µM, first compound 0.001 µM) 102% | viability, T/C (second compound 0.316 µM, first compound 0.00316 µM) 86.7% | viability, T/C (second compound 0.316 µM, first compound 0.01 µM) 103% | viability, T/C [5] 112% | viability, T/C [6] 92.9% | viability, T/C (second compound 1 µM, first compound 0.000316 µM) 99.6% | viability, T/C (second compound 1 µM, first compound 0.001 µM) 106% | viability, T/C (second compound 1 µM, first compound 0.00316 µM) 107% | viability, T/C (second compound 1 µM, first compound 0.01 µM) 111% | viability, T/C [7] 109% | viability, T/C [8] 96% | viability, T/C (second compound 3.16 µM, first compound 0.000316 µM) 94.2% | viability, T/C (second compound 3.16 µM, first compound 0.001 µM) 112% | viability, T/C (second compound 3.16 µM, first compound 0.00316 µM) 95% | viability, T/C (second compound 3.16 µM, first compound 0.01 µM) 96.9% | viability, T/C [9] 92.2% | viability, T/C [10] 96.6% | viability, T/C (second compound 10 µM, first compound 0.000316 µM) 102% | viability, T/C (second compound 10 µM, first compound 0.001 µM) 103% | viability, T/C (second compound 10 µM, first compound 0.00316 µM) 95% | viability, T/C (second compound 10 µM, first compound 0.01 µM) 94.2% | viability, T/C [11] 99.6% | viability, T/C [12] 68.5%

COc1cc2cc(C(=O)CCC(=O)O)sc2cc1OC + Nc1ccc(C#CCN(C(=O)Cc2ncc(C(F)(F)F)cc2C(F)(F)F)c2ccc(F)cc2)nn1
> 10 µM: IC50 (second compound 0.0316 µM) | IC50 (second compound 0.1 µM) | IC50 (second compound 0.316 µM) | IC50 (second compound 1 µM) | IC50 (second compound 3.16 µM) | IC50 (second compound 10 µM)
inactive: viability, T/C [1] 99% | viability, T/C [2] 97.8% | viability, T/C (second compound 0.0316 µM, first compound 0.316 µM) 85.9% | viability, T/C (second compound 0.0316 µM, first compound 1 µM) 94% | viability, T/C (second compound 0.0316 µM, first compound 3.16 µM) 111% | viability, T/C (second compound 0.0316 µM, first compound 10 µM) 106% | viability, T/C [3] 96.9% | viability, T/C [4] 83.8% | viability, T/C (second compound 0.1 µM, first compound 0.316 µM) 82.3% | viability, T/C (second compound 0.1 µM, first compound 1 µM) 105% | viability, T/C (second compound 0.1 µM, first compound 3.16 µM) 111% | viability, T/C (second compound 0.1 µM, first compound 10 µM) 102% | viability, T/C [5] 99.3% | viability, T/C [6] 102% | viability, T/C (second compound 0.316 µM, first compound 0.316 µM) 90.5% | viability, T/C (second compound 0.316 µM, first compound 1 µM) 86.3% | viability, T/C (second compound 0.316 µM, first compound 3.16 µM) 97.5% | viability, T/C (second compound 0.316 µM, first compound 10 µM) 102% | viability, T/C [7] 77.2% | viability, T/C [8] 94.6% | viability, T/C (second compound 1 µM, first compound 0.316 µM) 92.4% | viability, T/C (second compound 1 µM, first compound 1 µM) 91.4% | viability, T/C (second compound 1 µM, first compound 3.16 µM) 94.7% | viability, T/C (second compound 1 µM, first compound 10 µM) 93.4% | viability, T/C [9] 109% | viability, T/C [10] 87.8% | viability, T/C (second compound 3.16 µM, first compound 0.316 µM) 97.4% | viability, T/C (second compound 3.16 µM, first compound 1 µM) 102% | viability, T/C (second compound 3.16 µM, first compound 3.16 µM) 100% | viability, T/C (second compound 3.16 µM, first compound 10 µM) 115% | viability, T/C [11] 104% | viability, T/C [12] 88% | viability, T/C (second compound 10 µM, first compound 0.316 µM) 92.6% | viability, T/C (second compound 10 µM, first compound 1 µM) 99.4% | viability, T/C (second compound 10 µM, first compound 3.16 µM) 86.7% | viability, T/C (second compound 10 µM, first compound 10 µM) 87.1%
